The values that follow come from ChEMBL document CHEMBL5252641, “Design, synthesis, and evaluation of benzofuran-based chromenochalcones for antihyperglycemic and antidyslipidemic activities” (RSC Med Chem, 2023).

The subject of one test is L6. Nature of the test: Induction of glucose uptake in rat L6 cells expressing GLUT4 myc epitopes at 10 uM incubated for 24 hrs by scintillation counting method relative to control. Type of test: functional.
The subject of test [1] is Syrian golden hamster. Nature of the test: Antidyslipidemic activity in Triton-induced hyperlipidemic Syrian golden hamster model assessed as decrease in triglyceride level at 50 mg/kg measured after 18 hrs. Type of test: functional, Mesocricetus auratus. Also on record: scale not given: the % may be the effect or the level left.
Test [2] relates to Syrian golden hamster. Nature of the test: Antidyslipidemic activity in Triton-induced hyperlipidemic Syrian golden hamster model assessed as increase in lecithin-cholesterol acyltransferase level at 50 mg/kg measured after 18 hrs. In kind it is functional, Mesocricetus auratus.
Test [3] in a line: Antioxidant activity assessed as hydroxyl radical scavenging activity at 100 uM incubated for 90 mins by spectrophotometric analysis. Type of test: functional.
Test [4] is described as follows: Antioxidant activity assessed as superoxide anion radical scavenging activity at 100 uM incubated for 30 mins by spectrophotometric analysis. In kind it is functional.
Test [5] relates to Syrian golden hamster. Nature of the test: Antidyslipidemic activity in Triton-induced hyperlipidemic Syrian golden hamster model assessed as decrease in total cholesterol level at 50 mg/kg measured after 18 hrs. In kind it is functional, Mesocricetus auratus. Also noted: scale not given: the % may be the effect or the level left.
The test system of test [6] is Syrian golden hamster. Nature of the test: Antidyslipidemic activity in Triton-induced hyperlipidemic Syrian golden hamster model assessed as increase in post-heparin lipolytic activity at 50 mg/kg measured after 18 hrs. Type of test: functional, Mesocricetus auratus.
Test [7] has as its system Syrian golden hamster. Nature of the test: Antidyslipidemic activity in Triton-induced hyperlipidemic Syrian golden hamster model assessed as decrease in PL level at 50 mg/kg measured after 18 hrs. Type of test: functional, Mesocricetus auratus. Also noted: scale not given: the % may be the effect or the level left.

Take `COc1ccc(C(=O)c2cc3cc(/C=C/C(=O)c4ccc5c(c4O)C=CC(C)(CCC=C(C)C)O5)ccc3o2)cc1` (stereo not drawn): the Activity in the test on L6 turned out to be 6%; with Syrian golden hamster [1], 10%; in the test on Syrian golden hamster [2], 9%; in test [3] it was 7; in test [4], 9; in the test with Syrian golden hamster [5] it was 7%. The figures for the Activity with Syrian golden hamster [6] and in the test on Syrian golden hamster [7] were 14% and 10%, respectively.

In the case of `CC(C)=CCCC1(C)C=Cc2ccc(O)c(C(=O)/C=C/c3ccc4occc4c3)c2O1` (stereo not drawn), the Activity in the test on L6 was 108%; in the test on Syrian golden hamster [1], 11%; in the test with Syrian golden hamster [2], 14%; in test [3] it was 19; in test [4], 11; with Syrian golden hamster [5] it was 10%. Also, the Activity came out at 17% with Syrian golden hamster [6] and 11% in the test on Syrian golden hamster [7].

With `Cc1ccc(C)c(OCCCC(C)(C)C(=O)O)c1` [GEMFIBROZIL], the Activity in the test on Syrian golden hamster [1] is given as 36%; with Syrian golden hamster [2], 42%; in the test on Syrian golden hamster [5], 38%; with Syrian golden hamster [6] it was 41%; in the test on Syrian golden hamster [7], 34%.

In the case of `CC1(C)C=Cc2ccc(O)c(C(=O)/C=C/c3ccc4oc(C(=O)c5ccc(Cl)cc5)cc4c3)c2O1`, the Activity in the test on L6 worked out at 89%; in the test on Syrian golden hamster [1] it was 7%; in the test on Syrian golden hamster [2], 10%; in test [3], 12; in test [4] it was 17; in the test with Syrian golden hamster [5], 8%. The Activity came to 11% with Syrian golden hamster [6] and 6% in the test with Syrian golden hamster [7].

For the compound `CC(C)=CCCC1(C)C=Cc2ccc(O)c(C(=O)/C=C/c3ccc4oc(C(=O)c5ccc(C)cc5)cc4c3)c2O1` (stereo not drawn), the Activity with L6 was found to be 47.4%; in the test on Syrian golden hamster [1], 14%; with Syrian golden hamster [2], 22%; in test [3], 11; in test [4] it was 19; in the test on Syrian golden hamster [5], 18%. The Activity with Syrian golden hamster [6] came to 22%; in the test on Syrian golden hamster [7], 17%.

`COc1ccc(C(=O)c2cc3cc(/C=C/C(=O)c4ccc5c(c4O)C=CC(C)(C)O5)ccc3o2)cc1`: the Activity was 109.5% in the test on L6; 16% with Syrian golden hamster [1]; 19% with Syrian golden hamster [2]; 11 in test [3]; 16 in test [4]; 15% in the test with Syrian golden hamster [5]. For the same compound, the Activity in the test on Syrian golden hamster [6] was determined as 21%; with Syrian golden hamster [7] it was 13%.

`CC(C)=CCCC1(C)C=Cc2ccc(O)c(C(=O)/C=C/c3ccc4oc(C(=O)c5ccccc5)cc4c3)c2O1` (stereo not drawn): the Activity in the test on L6 amounted to 82.5%; in the test with Syrian golden hamster [1], 8%; with Syrian golden hamster [2], 19%; in test [3] it was 13; in test [4] it was 12; with Syrian golden hamster [5] it was 17%. Besides, the Activity is given as 13% in the test with Syrian golden hamster [6] and 6% in the test on Syrian golden hamster [7].

Take `CC(C)=CCCC1(C)C=Cc2ccc(O)c(C(=O)/C=C/c3ccc4oc(C(=O)c5ccc(Cl)cc5)cc4c3)c2O1` (stereo not drawn): the Activity in the test with L6 came out at 4%; in the test on Syrian golden hamster [1] it was 18%; in the test with Syrian golden hamster [2], 15%; in test [3], 13; in test [4], 12; in the test on Syrian golden hamster [5], 11%. The Activity with Syrian golden hamster [6] is 24%; in the test on Syrian golden hamster [7], 18%.

Take `CC1(C)C=Cc2c(O)c(C(=O)/C=C/c3ccc4oc(C(=O)c5ccc(Cl)cc5)cc4c3)c3c(c2O1)C=CC(C)(C)O3`: the Activity in the test on L6 came to 27%; in the test with Syrian golden hamster [1] it was 24%; in the test with Syrian golden hamster [2] it was 15%; in test [3] it was 13; in test [4], 21; with Syrian golden hamster [5] it was 11%. The Activity amounted to 26% in the test on Syrian golden hamster [6] and 16% with Syrian golden hamster [7].

Turning to `CC(C)=CCCC1(C)C=Cc2c(ccc(C(=O)/C=C/c3ccc4oc(C(=O)c5ccccc5)cc4c3)c2O)O1` (stereo not drawn), the Activity in the test on L6 was determined as 20.5%; with Syrian golden hamster [1], 10%; with Syrian golden hamster [2], 25%; in test [3] it was 18; in test [4], 18; in the test with Syrian golden hamster [5] it was 21%. The results for the Activity in the test with Syrian golden hamster [6] and in the test with Syrian golden hamster [7] were 18% and 13%, respectively.

Regarding `COc1ccc(C(=O)c2cc3cc(/C=C/C(=O)c4c(O)c5c(c6c4OC(C)(CCC=C(C)C)C=C6)OC(C)(CCC=C(C)C)C=C5)ccc3o2)cc1` (stereo not drawn), the Activity in the test on L6 was 37%; in the test with Syrian golden hamster [1], 14%; in the test on Syrian golden hamster [2], 21%; in test [3], 11; in test [4] it was 9; in the test with Syrian golden hamster [5], 18%. For the same compound, the Activity is recorded as 16% with Syrian golden hamster [6] and 13% with Syrian golden hamster [7].

On to `COc1ccc(C(=O)c2cc3cc(/C=C/C(=O)c4c(O)ccc5c4OC(C)(CCC=C(C)C)C=C5)ccc3o2)cc1` (stereo not drawn), for which the Activity in the test on L6 was 65.5%; with Syrian golden hamster [1] it was 16%; in the test on Syrian golden hamster [2], 19%; in test [3], 13; in test [4] it was 11; in the test on Syrian golden hamster [5], 16%. The Activity is recorded as 19% with Syrian golden hamster [6] and 15% with Syrian golden hamster [7].

Take `Cc1ccc(C(=O)c2cc3cc(/C=C/C(=O)c4ccc5c(c4O)C=CC(C)(C)O5)ccc3o2)cc1`: the Activity in the test on L6 is 53.1%; with Syrian golden hamster [1], 13%; in the test with Syrian golden hamster [2], 17%; in test [3], 10; in test [4], 11; in the test on Syrian golden hamster [5], 13%. Moreover, the Activity came to 18% in the test on Syrian golden hamster [6] and 11% in the test with Syrian golden hamster [7].

With `OC[C@@H](O)[C@@H](O)[C@H](O)[C@H](O)CO`, in test [3], the Activity came to 39.

Turning to `Cc1ccc(C(=O)c2cc3cc(/C=C/C(=O)c4c(O)ccc5c4OC(C)(C)C=C5)ccc3o2)cc1`, the Activity in the test with L6 turned out to be 72.9%; with Syrian golden hamster [1], 15%; in the test with Syrian golden hamster [2] it was 20%; in test [3], 18; in test [4], 13; with Syrian golden hamster [5] it was 16%. Further, the Activity is on record as 19% with Syrian golden hamster [6] and 11% with Syrian golden hamster [7].

For the compound `CN(CCOc1ccc(CC2SC(=O)NC2=O)cc1)c1ccccn1` (stereo not drawn) [ROSIGLITAZONE], the Activity in the test on L6 is 96.5%.

For `COc1ccc(C(=O)c2cc3cc(/C=C/C(=O)c4c(O)c5c(c6c4OC(C)(C)C=C6)OC(C)(C)C=C5)ccc3o2)cc1`, the Activity with L6 was found to be 22%; with Syrian golden hamster [1], 15%; in the test with Syrian golden hamster [2] it was 12%; in test [3], 17; in test [4], 12; in the test with Syrian golden hamster [5], 9%. Moreover, the Activity in the test with Syrian golden hamster [6] amounted to 21%; in the test with Syrian golden hamster [7] it was 13%.

With `Oc1ncnc2[nH]ncc12`, in test [4], the Activity amounted to 37.

For `CC1(C)C=Cc2c(O)c(C(=O)/C=C/c3ccc4oc(C(=O)c5ccccc5)cc4c3)c3c(c2O1)C=CC(C)(C)O3`, the Activity in the test on L6 came to 26.5%; in the test on Syrian golden hamster [1] it was 18%; in the test with Syrian golden hamster [2], 14%; in test [3], 11; in test [4] it was 15; with Syrian golden hamster [5], 10%. Also, the Activity in the test with Syrian golden hamster [6] turned out to be 23%; with Syrian golden hamster [7], 16%.
